Results on 1 compound are retold here after article PMC8997995, “Amphiphilic Cell-Penetrating Peptides Containing Natural and Unnatural Amino Acids as Drug Delivery Agents” (Cells, 2022).

A short description of data set [1]: Circular dichroism, estimate of secondary structure. The class given is physicochemical. As to conditions: CD, 100 µM peptide in water, principal component regression analysis. As to the method:
Samples were prepared in 100 µM concentration dissolved in water only. The cuvette with the 1 mm path length was used for all the measurements. The circular dichroism analysis was performed with a J-1500 Jasco spectrophotometer using nitrogen gas and PM-539 detector. Parameters were selected as follows: data interval 0.1 nm, data points 701, data pitch 0.1 nm, CD scale 200 mdeg/0.1 dOD, FL scale 200 mdeg/0.1 dOD, D.I.T 2 s, bandwidth 1 nm, cell length 1 mm, start mode immediately, scanning mode continuous, scanning speed 50 nm/min, shutter control auto, and N2 flowmeter manual. An average of three readings between 190 and 260 nm were collected for each sample. The analysis was carried out using one of Multivariate Regression Analyses, which is Principal Component Regression (PCR) with a basis set containing 26 proteins reference under the following conditions: standardization of result 100, replaced negative value to zero, and rejection percentage of 1%.

The subject of data set [2] is CCRF-CEM cells. In words: In vitro cytotoxicity (MTS) in CCRF-CEM cells. It counts as cell-based, human. To be noted: 25 µM, MTS, n = 3. As to the method: SK-OV-3, CCRF-CEM, HEK-293, MDA-MB-468, LLC-PK1, and MES-SA were used to determine the cytotoxicity of the synthesized linear and cyclic peptides. About 5000, 10,000, and 50,000 cells were seeded for SK-OV-3, HEK-293, and CCRF-CEM cells, respectively, in 0.1 mL of medium per well of 96-well plates. An appropriate medium was used for each cell line (SK-OV-3: McCoy’s 5A with L-glutamine containing fetal bovine serum (FBS) (10%) and penicillin or streptomycin (1%); CCRF-CEM: RPMI-1640 medium with L-glutamine and sodium bicarbonate containing FBS (10%) and penicillin or streptomycin (1%); MDA-MB-468 cells: DMEM/F12 (1:1) (1×) with L-glutamine and 15 mM HEPES containing FBS (10%) and penicillin or streptomycin (1%); LLC-PK1 cells: Dulbecco’s Modified Eagle’s Medium with 4500 mg/L glucose, L-glutamine and sodium bicarbonate, without sodium pyruvate liquid containing FBS (10%) and penicillin or streptomycin (1%); MES-SA cells: consisting of half SK-OV-3 and half CCRF-CEM media; and HEK-293 cells: Minimum Essential Medium Eagle with Earle’s salts and sodium bicarbonate, without L-glutamine containing FBS (10%) and penicillin or streptomycin (1%)). Then, 20 µL of peptides containing 5% DMSO in water were added to each well.
Adhesive cells were detached with 0.05% trypsin/EDTA after 15 min. The suspended cells were seeded in the medium 24 h prior to the experiment according to the previously reported procedure. The medium was changed before adding the peptides for adherent cells. Each concentration 5, 10, 25, 50, and 166 µM (containing 0.8% DMSO) had triplicate wells to minimize possible errors. […] The cell viability was measured by utilizing Multi-Mode Microplate Reader (SpectraMax M5 model, Molecular Devices, San Jose, CA, USA) after adding 20 µL of the MTS reagent to each well and incubating for 3 additional hours. […] The protocol manager was selected “endpoint” on the spectrophotometer’s software (SoftMax Pro 7). The 96-well plates were inserted inside spectrophotometer, and the data were acquired. The percentage of cell viability was calculated using the following equation:(1) =(Average OD values of samples treated with the compound /Average OD values of no treatment samples )∗100

Data set [3] can be described thus: Dynamic light scattering. The class given is physicochemical. As to conditions: DLS, 10 µM, 25 °C. As to the method:
The samples were prepared in 10 µM concentration and were incubated for approximately 2 h after thawing from a freezer (0 to −18 °C). Samples were analyzed by dynamic light scattering (DLS) for particle sizes and the polydispersity index (PI). The data were acquired by using a Zetasizer Nano ZS (Malvern, Worcestershire, UK), which has a 0.3 nm to 10 µm particle size range and was equipped with a laser beam (λ = 633 nm; 4 mW) and a scattered light detector positioned at an angle of 173° (noninvasive backscatter) in order to unmask scattered light signals of low intensity originated by the smaller particles. The analytical model was based on protein analysis. The sensitivity of the device is reported to be at 0.1 mg/mL (lysozyme). The refractive index and absorption were set at 1.450 and 0.001 for the material. The refractive index, viscosity, and temperature were set at 1.33, 0.8872, and 25 °C for dispersant. Particle sizes and PI measurements were made in disposable cuvettes (ZEN0040) at 25 °C and variable runs per measurement.

Non-standard residues stand in square brackets, D forms with d. Residues, ends and D or L forms follow the SMILES beside them. Dip = N[C@H](C(=O)O)C(c1ccccc1)c1ccccc1

As for `N=C(N)NCCC[C@@H]1NC(=O)[C@H](C(c2ccccc2)c2ccccc2)NC(=O)[C@H](CCCNC(=N)N)NC(=O)[C@H](C(c2ccccc2)c2ccccc2)NC(=O)[C@H](CCCNC(=N)N)NC(=O)[C@H](C(c2ccccc2)c2ccccc2)NC(=O)[C@H](CCCNC(=N)N)NC(=O)[C@H](C(c2ccccc2)c2ccccc2)NC(=O)[C@H](CCCNC(=N)N)NC(=O)[C@H](C(c2ccccc2)c2ccccc2)NC1=O` [[DipR]5] (cyclo([Dip]R[Dip]R[Dip]R[Dip]R[Dip]R)), in data set [1], the “Other (random coil)” value was 49.9%, the Turn was 16.6%, the α-helix is 21.4% and the β-sheet is recorded as 12.1%. For the same compound, in data set [2] (24 h incubation), the “reduction of cell proliferation” value is given as 64%. For the same compound, in data set [2] (72 h incubation), the “reduction of cell proliferation” value is 84%. Besides, in data set [3], the Z average size came out at 200.6 nm and the “polydispersity index (PI)” value turned out to be 0.359.
